The assay deals with rat mGluR5 (Rattus norvegicus, UniProt P31424). In words: cell-based.
Sequence of rat mGluR5 (P31424 21-1203): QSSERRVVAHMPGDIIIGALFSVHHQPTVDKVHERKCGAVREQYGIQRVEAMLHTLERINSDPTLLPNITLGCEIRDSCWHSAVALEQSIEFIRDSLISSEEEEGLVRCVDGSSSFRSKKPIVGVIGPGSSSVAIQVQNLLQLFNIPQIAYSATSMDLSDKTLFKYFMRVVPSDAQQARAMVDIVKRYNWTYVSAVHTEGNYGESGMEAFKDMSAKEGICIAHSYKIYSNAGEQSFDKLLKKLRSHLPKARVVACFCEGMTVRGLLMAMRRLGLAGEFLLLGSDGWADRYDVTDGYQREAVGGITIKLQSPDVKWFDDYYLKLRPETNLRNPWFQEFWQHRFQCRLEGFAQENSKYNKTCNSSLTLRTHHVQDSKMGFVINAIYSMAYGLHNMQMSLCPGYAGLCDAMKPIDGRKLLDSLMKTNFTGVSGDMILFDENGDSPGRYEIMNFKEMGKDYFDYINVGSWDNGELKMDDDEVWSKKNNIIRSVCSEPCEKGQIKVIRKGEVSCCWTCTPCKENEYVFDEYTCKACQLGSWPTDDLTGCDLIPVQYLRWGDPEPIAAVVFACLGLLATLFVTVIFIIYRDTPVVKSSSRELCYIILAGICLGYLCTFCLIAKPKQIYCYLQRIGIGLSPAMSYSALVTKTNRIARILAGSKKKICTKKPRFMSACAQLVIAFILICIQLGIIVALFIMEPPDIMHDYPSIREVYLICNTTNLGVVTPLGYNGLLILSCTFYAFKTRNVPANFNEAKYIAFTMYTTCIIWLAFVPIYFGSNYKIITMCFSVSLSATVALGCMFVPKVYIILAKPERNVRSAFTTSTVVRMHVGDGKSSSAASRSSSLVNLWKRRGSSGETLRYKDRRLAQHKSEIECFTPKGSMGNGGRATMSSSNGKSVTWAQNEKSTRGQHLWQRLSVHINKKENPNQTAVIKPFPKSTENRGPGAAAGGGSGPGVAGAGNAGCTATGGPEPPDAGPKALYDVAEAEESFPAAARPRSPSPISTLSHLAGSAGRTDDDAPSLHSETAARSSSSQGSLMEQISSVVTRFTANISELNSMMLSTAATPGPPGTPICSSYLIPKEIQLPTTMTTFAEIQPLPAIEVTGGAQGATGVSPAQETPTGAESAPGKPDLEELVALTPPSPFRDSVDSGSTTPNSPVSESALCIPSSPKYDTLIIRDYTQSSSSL

Procedure: The cells were loaded with a Ca2+-sensitive fluorescent dye (e.g., Fluo-4), and the plates were washed and placed in the FDSS instrument. Test compound was applied to cells 3 seconds after baseline readings were taken. Cells were incubated with the test compounds for 140 seconds and then stimulated with an EC20 concentration of an mGluR5 agonist (e.g., glutamate, 3,5-dihydroxyphenylglycine, or quisqualate); 60-80 seconds later an EC80 concentration of agonist was added and readings taken for an additional 40 seconds. Data were collected at 1 Hz. […] Concentration response curves were generated using a four parameter logistical equation.
The above described assay was operated in two modes. In the first mode (utilizing a triple add protocol), a range of concentrations of the present compounds were added to cells, followed by two single fixed concentrations of agonist (EC20 followed by EC80). If a compound acted as a potentiator, an EC50 value for potentiation of the EC20 response and a maximum extent of potentiation by the compound at this concentration of agonist was determined by non-linear curve fitting. If a compound acted as an antagonist, an IC50 value for antagonism of the EC80 response and a maximum extent of antagonism by the compound at this concentration of agonist was determined by non-linear curve fitting. In the second mode (utilizing a double add protocol), several fixed concentrations of the present compounds were added to various wells on a plate, followed by a range of concentrations of agonist for each concentration of present compound; the EC50 values for the agonist at each concentration of compound were determined by nonlinear curve fitting. A decrease in the EC50 value of the agonist with increasing concentrations of the present compounds (a leftward shift of the agonist concentration-response curve) is an indication of the degree of mGluR5 positive allosteric modulation at a given concentration of the present compound. An increase in the EC50 value of the agonist with increasing concentrations of the present compounds (a rightward shift of the agonist concentration response curve) is an indication of the degree of mGluR5 antagonism at a given concentration of the present compound. The second mode also indicates whether the present compounds also affect the maximum response to mGluR5 to agonists.
The mGluR5 activity was determined using the metabotropic glutamate receptor activity assays in human embryonic kidney cells as described herein, wherein the human embryonic kidney cells were transfected with rat mGluR5. The mGluR5 activity data for some compounds are shown as the average of at least three experiments with the standard error in these cases. If no error is indicated for the mGluR5 activity, the values given represent the results from a single experiment or the average of two experiments.

`CN(c1cncnc1)c1ccnc(NC(=O)c2cccc(Br)c2)c1` registered an IC50 of 162 nM. Take `O=C(Nc1ccnc(Oc2cccnc2)c1)c1cccc(Br)c1`: the IC50 was > 10000 nM. For `Cc1ccc(Oc2cncc(NC(=O)c3cccc(C)n3)n2)cn1`, the IC50 was > 30000 nM. As for `Cc1cccc(C(=O)Nc2cccc(Oc3cncnc3)n2)n1`, the IC50 was > 30000 nM. On to `Cc1cccc(C(=O)Nc2cncc(Oc3cccnc3)n2)c1`, for which the IC50 worked out at 166 nM.

Regarding `Cc1cccc(C(=O)Nc2cncc(Oc3ccc(C(F)(F)F)nc3)n2)n1`, the IC50 is > 30000 nM. As for `Cc1cccc(C(=O)Nc2cncc(Oc3ccc(C)nc3)n2)c1`, the IC50 was > 10000 nM. On to `N#Cc1cncc(C(=O)Nc2cncc(Oc3cncnc3)c2)c1`, for which the IC50 was > 10000 nM. The value for `N#Cc1cccc(C(=O)Nc2cncc(Oc3cccnc3)n2)c1` was 460 nM; that for `O=C(Nc1cncc(Oc2cncnc2)c1)c1cccc(C(F)(F)F)n1` was > 30000 nM. As for `Cc1cccc(C(=O)Nc2cncc(Oc3cccnc3)n2)n1`, the figure is > 30000 nM.

`O=C(Nc1cncc(Oc2cncnc2)c1)c1cccc(F)c1`: the IC50 is > 10000 nM. As for `CN(c1cncnc1)c1ccnc(NC(=O)c2cccc(C#N)c2)c1`, the figure is 2260 nM; as for `N#Cc1cccc(C(=O)Nc2cccc(Oc3ccc(C(F)(F)F)nc3)n2)c1`, > 30000 nM; as for `CCN(c1cncnc1)c1cncc(NC(=O)c2cccc(C#N)c2)c1`, 1790 nM. Take `Cc1cccc(C(=O)Nc2cccc(Oc3ccc(C(F)(F)F)nc3)n2)n1`: the IC50 is > 30000 nM. Molecule `N#Cc1cccc(C(=O)Nc2cccc(Oc3cccnc3)n2)c1` yielded an IC50 of 266 nM. As for `Cc1ccc(Oc2cncc(NC(=O)c3cccc(Cl)c3)n2)cn1`, the IC50 was > 10000 nM.

In turn, `N#Cc1cccc(C(=O)Nc2cccc(Oc3cncnc3)n2)c1` came in with an IC50 of 271 nM.

In the case of `Cc1cccc(C(=O)Nc2cccc(Oc3ccc(C(F)(F)F)nc3)n2)c1`, the half-maximal inhibitory concentration (IC50) was > 30000 nM. On to `N#Cc1cccc(C(=O)Nc2cncc(Oc3cccnc3)c2)c1`, for which half-maximal inhibition (IC50) was put at 500 nM.

`O=C(Nc1cncc(Oc2cncnc2)c1)c1cc(Cl)ccc1F` showed an IC50 of 927 nM. With `Cc1cccc(C(=O)Nc2cncc(Oc3ccc(C(F)(F)F)nc3)n2)c1`, the IC50 was > 10000 nM. Regarding `Cc1cccc(C(=O)Nc2cccc(Oc3cncnc3)n2)c1`, the IC50 came out at 87 nM. In turn, `O=C(Nc1cncc(Oc2cccnc2)n1)c1cccc(Cl)c1` came in with an IC50 of 100 ± 12 nM. For `N#Cc1csc(C(=O)Nc2cncc(Oc3cncnc3)c2)c1`, the IC50 is > 10000 nM. On to `O=C(Nc1cncc(Oc2cncnc2)c1)c1cscn1`, for which the IC50 was > 10000 nM. As for `CN(c1cccnc1)c1ccnc(NC(=O)c2cccc(Br)c2)c1`, the figure is 123 nM; as for `O=C(Nc1cncc(Oc2cncnc2)c1)c1cccc(F)n1`, > 30000 nM. For the molecule `O=C(Nc1ccnc(Oc2cccnc2)c1)c1cccc(Cl)c1`, the IC50 was found to be 1120 nM.

The values above are taken from patent publication US8569308B2, “Substituted heteroarylamine carboxamide analogs as mGluR5 negative allosteric modulators and methods of making and using the same” (Vanderbilt University, priority 2009, dated 2013).
